Measured values from PubChem BioAssay (NCI).
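96-well plates; 48 h exposure; 5 concentrations. Endpoints by linear interpolation between flanking doses. Not reached: highest tested concentration assigned. TGI marks complete inhibition of growth.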

Experiments:
Test in all cases: inhibition of tumour cell growth, NCI panel, 48 h
[1] = system: MDA-MB-435
[2] = system: HOP-62 NSCLC
[3] = system: HCT-116 colon
[4] = system: NCI-H226 lung
[5] = system: SK-MEL-28 melanoma
[6] = system: OVCAR-4 ovarian
[7] = system: KM12 colon
[8] = system: UACC-62 melanoma
[9] = system: SK-OV-3 ovarian
[10] = system: MDA-N
[11] = system: M14 melanoma
[12] = system: T-47D breast
[13] = system: NCI-H23 lung
[14] = system: NCI-H522 lung
[15] = system: 786-0 renal
[16] = system: HS 578T breast
[17] = system: EKVX NSCLC
[18] = system: MDA-MB-231 breast
[19] = system: DU-145 prostate
[20] = system: K-562 leukemia

Compound: C[N+](C)(C)CC(=O)N/N=C(/CC1OC(=O)c2ccccc21)c1ccccc1O (stereo not given)
- TGI [1]: 97.8 µM
- TGI [2]: > 100 µM
- TGI [3]: > 100 µM
- TGI [4]: 57.4 µM
- TGI [5]: > 100 µM
- TGI [6]: > 100 µM
- TGI [7]: > 100 µM
- TGI [8]: 72.1 µM
- TGI [9]: > 100 µM
- TGI [10]: > 100 µM
- TGI [11]: > 100 µM
- TGI [12]: > 100 µM
- TGI [13]: 85.4 µM
- TGI [14]: > 100 µM
- TGI [15]: 86.5 µM
- TGI [16]: > 100 µM
- TGI [17]: > 100 µM
- TGI [18]: > 100 µM
- TGI [19]: > 100 µM

Compound: COc1ccc2c(c1)CCC1=C/C(=N\NC(N)=O)CCC12C (stereo not given)
- TGI [1]: > 10 µM
- TGI [2]: > 10 µM
- TGI [3]: > 10 µM
- TGI [5]: > 10 µM
- TGI [6]: > 10 µM
- TGI [7]: > 10 µM
- TGI [8]: > 10 µM
- TGI [9]: > 10 µM
- TGI [10]: > 10 µM
- TGI [11]: > 10 µM
- TGI [12]: > 10 µM
- TGI [13]: > 10 µM
- TGI [14]: > 10 µM
- TGI [15]: > 10 µM
- TGI [20]: > 10 µM
- TGI [16]: > 10 µM
- TGI [18]: > 10 µM
- TGI [19]: > 10 µM

Compound: C[S+](C)CC(=O)c1ccc2c(c1)Sc1ccccc1O2
- TGI [1]: 10.1 µM
- TGI [2]: 28.4 µM
- TGI [3]: 7.32 µM
- TGI [4]: 11.5 µM
- TGI [5]: 25.1 µM
- TGI [6]: 15.4 µM
- TGI [7]: 2.87 µM
- TGI [8]: 9.38 µM
- TGI [9]: 19.6 µM
- TGI [11]: 3.48 µM
- TGI [12]: > 44.4 µM
- TGI [13]: 14 µM
- TGI [14]: 2.5 µM
- TGI [15]: 9.49 µM
- TGI [20]: > 100 µM
- TGI [16]: 22.1 µM
- TGI [17]: 14.4 µM
- TGI [18]: 18.7 µM
- TGI [19]: 11 µM

Compound: CC(=O)c1sc(Nc2ccc(Cl)c(Cl)c2)nc1C
- TGI [1]: > 100 µM
- TGI [2]: > 100 µM
- TGI [3]: > 100 µM
- TGI [4]: > 100 µM
- TGI [5]: > 100 µM
- TGI [6]: > 100 µM
- TGI [7]: > 100 µM
- TGI [8]: > 100 µM
- TGI [9]: > 100 µM
- TGI [10]: > 100 µM
- TGI [12]: > 100 µM
- TGI [13]: > 100 µM
- TGI [15]: > 100 µM
- TGI [17]: > 100 µM
- TGI [18]: > 100 µM
- TGI [19]: > 100 µM

Compound: C[C@H](CCC(=O)O)[C@H]1CC[C@H]2[C@@H]3[C@H](O)C[C@@H]4C[C@H](O)CC[C@]4(C)[C@H]3CC[C@]12C
- TGI [1]: > 100 µM
- TGI [2]: > 100 µM
- TGI [3]: > 100 µM
- TGI [4]: 78.3 µM
- TGI [5]: > 100 µM
- TGI [6]: > 100 µM
- TGI [7]: > 100 µM
- TGI [8]: > 100 µM
- TGI [10]: > 100 µM
- TGI [11]: 85.2 µM
- TGI [12]: > 100 µM
- TGI [13]: 64.7 µM
- TGI [14]: > 100 µM
- TGI [15]: > 100 µM
- TGI [20]: > 100 µM
- TGI [17]: > 100 µM
- TGI [18]: > 100 µM
- TGI [19]: > 100 µM

Compound: CC(=O)Oc1cc(C)c(OC(C)=O)c2c1[C@H]1CC[C@]3(C)[C@@H](OC(C)=O)CC[C@H]3[C@@H]1CC2
- TGI [1]: 27.7 µM
- TGI [2]: 34.4 µM
- TGI [3]: 30.2 µM
- TGI [5]: 29.9 µM
- TGI [7]: 28.6 µM
- TGI [8]: 32.8 µM
- TGI [10]: 28.2 µM
- TGI [11]: 30.2 µM
- TGI [13]: 34.8 µM
- TGI [14]: 32.6 µM
- TGI [15]: 43.1 µM
- TGI [20]: 86.1 µM
- TGI [16]: 57 µM
- TGI [17]: 26.4 µM
- TGI [18]: 32.7 µM
- TGI [19]: 31.5 µM

Compound: CCCC(=O)Oc1ccc2c(C)cc(=O)oc2c1OC(=O)CCC
- TGI [1]: > 100 µM
- TGI [2]: > 100 µM
- TGI [3]: > 100 µM
- TGI [4]: > 100 µM
- TGI [5]: > 100 µM
- TGI [6]: > 100 µM
- TGI [7]: > 100 µM
- TGI [8]: > 100 µM
- TGI [9]: > 100 µM
- TGI [10]: > 100 µM
- TGI [11]: > 100 µM
- TGI [13]: > 100 µM
- TGI [15]: > 100 µM
- TGI [20]: > 100 µM
- TGI [16]: > 100 µM
- TGI [17]: > 100 µM
- TGI [18]: > 100 µM
- TGI [19]: > 100 µM

Compound: CCN(CC)c1ccc2cc(C(=O)Nc3nc(C45CC6CC(CC(C6)C4)C5)cs3)c(=O)oc2c1
- TGI [1]: > 100 µM
- TGI [2]: > 100 µM
- TGI [3]: > 100 µM
- TGI [4]: > 100 µM
- TGI [5]: > 100 µM
- TGI [6]: > 100 µM
- TGI [7]: > 100 µM
- TGI [10]: > 100 µM
- TGI [13]: > 100 µM
- TGI [14]: > 100 µM
- TGI [15]: > 100 µM
- TGI [20]: > 100 µM
- TGI [16]: > 100 µM
- TGI [17]: > 100 µM
- TGI [18]: > 100 µM
- TGI [19]: > 100 µM

Compound: CC(=O)OC1CC[C@@]2(C)C(C1)CC(OC(C)=O)[C@@H]1C2CC(OC(C)=O)[C@]2(C)C(C(C)CC=C(c3ccc(Cl)cc3)c3ccc(Cl)cc3)CCC12 (stereo not given in full)
- TGI [1]: > 100 µM
- TGI [2]: > 100 µM
- TGI [3]: > 100 µM
- TGI [5]: > 100 µM
- TGI [6]: > 100 µM
- TGI [7]: > 100 µM
- TGI [9]: > 100 µM
- TGI [10]: > 100 µM
- TGI [11]: > 100 µM
- TGI [12]: > 100 µM
- TGI [14]: > 100 µM
- TGI [15]: > 100 µM
- TGI [20]: > 100 µM
- TGI [16]: > 100 µM
- TGI [17]: > 100 µM
- TGI [18]: > 100 µM

Compound: O=C1CC(c2ccc(Cl)cc2)C2(C(=O)NC(=O)NC2=O)C(c2ccc(Cl)cc2)C1 (stereo not given)
- TGI [1]: 43.8 µM
- TGI [2]: 69 µM
- TGI [3]: > 75 µM
- TGI [4]: 36.4 µM
- TGI [5]: 37 µM
- TGI [6]: > 75 µM
- TGI [7]: > 75 µM
- TGI [8]: > 75 µM
- TGI [10]: 49 µM
- TGI [11]: > 75 µM
- TGI [12]: > 75 µM
- TGI [13]: > 75 µM
- TGI [14]: 40.6 µM
- TGI [15]: > 75 µM
- TGI [20]: > 75 µM
- TGI [17]: > 75 µM
- TGI [18]: 34.8 µM
- TGI [19]: > 75 µM

Compound: Cc1ccc(CC(Cc2ccc(C)cc2C(=O)O)C(=O)O)cc1 (stereo not given)
- TGI [1]: > 100 µM
- TGI [2]: > 100 µM
- TGI [3]: > 100 µM
- TGI [4]: > 100 µM
- TGI [5]: > 100 µM
- TGI [6]: > 100 µM
- TGI [7]: > 100 µM
- TGI [8]: > 100 µM
- TGI [9]: > 100 µM
- TGI [10]: > 100 µM
- TGI [11]: > 100 µM
- TGI [12]: > 100 µM
- TGI [13]: > 100 µM
- TGI [14]: > 100 µM
- TGI [15]: > 100 µM
- TGI [16]: > 100 µM
- TGI [17]: > 100 µM
- TGI [18]: > 100 µM
- TGI [19]: > 100 µM

Compound: COc1ccc([C@]23CCN(S(=O)(=O)c4ccc(C)cc4)[C@H]2[C@H](CO)C2(CC3)OCC(C)(C)CO2)cc1OC
- TGI [1]: > 100 µM
- TGI [2]: > 100 µM
- TGI [3]: > 100 µM
- TGI [4]: > 100 µM
- TGI [5]: > 100 µM
- TGI [6]: > 100 µM
- TGI [7]: > 100 µM
- TGI [8]: > 100 µM
- TGI [9]: > 100 µM
- TGI [10]: > 100 µM
- TGI [11]: > 100 µM
- TGI [12]: > 100 µM
- TGI [13]: > 100 µM
- TGI [14]: > 100 µM
- TGI [15]: > 100 µM
- TGI [20]: > 100 µM
- TGI [17]: > 100 µM
- TGI [18]: > 100 µM
- TGI [19]: > 100 µM

Compound: Cn1c(=O)cc(NCCc2ccccc2)[nH]c1=O
- TGI [2]: > 100 µM
- TGI [3]: > 100 µM
- TGI [4]: > 100 µM
- TGI [5]: > 100 µM
- TGI [6]: > 100 µM
- TGI [7]: > 100 µM
- TGI [8]: > 100 µM
- TGI [9]: > 100 µM
- TGI [10]: 20.5 µM
- TGI [11]: > 100 µM
- TGI [12]: > 100 µM
- TGI [13]: > 100 µM
- TGI [15]: > 100 µM
- TGI [20]: > 100 µM
- TGI [16]: 50.7 µM
- TGI [17]: > 100 µM
- TGI [18]: 50 µM
- TGI [19]: > 100 µM
